From ChEMBL document CHEMBL3085635, “Synthesis of structurally diverse benzosuberene analogues and their biological evaluation as anti-cancer agents” (Bioorg Med Chem, 2013)

Key:
SK-OV-3 = test: Cytotoxicity against human SKOV3 cells after 48 hrs by SRB assay; assay type: functional
NCI-H460 = test: Cytotoxicity against human NCI-H460 cells after 48 hrs by SRB assay; assay type: functional
DU-145 = test: Cytotoxicity against human DU145 cells after 48 hrs by SRB assay; assay type: functional
[1] = Inhibition of calf brain tubulin polymerization after 15 mins by UV-visible spectrophotometry; design: species or system Bos taurus

Question: For `COc1ccc2c(c1O)CCCC=C2c1cc(OC)c(OC)c(OC)c1`, which GI50 (SK-OV-3; Homo sapiens, SK-OV-3, 48 h) is on record?
Answer: 0.0543 nM

Question: What about the GI50 (NCI-H460; Homo sapiens, NCI-H460, 48 h) of the same molecule?
Answer: 0.0418 nM

Question: And the GI50 (DU-145; Homo sapiens, DU-145, 48 h)?
Answer: 0.0249 nM

Question: What about the IC50 [1] of the same molecule?
Answer: 1400 nM

Question: With `COc1ccc2c(c1F)CCCC=C2c1cc(OC)c(OC)c(OC)c1` as the molecule, how does the GI50 (SK-OV-3; Homo sapiens, SK-OV-3, 48 h) read?
Answer: 7.51 nM

Question: What about the GI50 (NCI-H460; Homo sapiens, NCI-H460, 48 h) of the same molecule?
Answer: 5.47 nM

Question: And the GI50 (DU-145; Homo sapiens, DU-145, 48 h)?
Answer: 18.9 nM

Question: What about the IC50 [1] of the same molecule?
Answer: 890 nM

Question: Which GI50 (SK-OV-3; Homo sapiens, SK-OV-3, 48 h) does the source give for `COc1ccc(C2=CCCCc3c2ccc(OC)c3O)cc1OC` here?
Answer: 33.4 nM

Question: And the GI50 (NCI-H460; Homo sapiens, NCI-H460, 48 h)?
Answer: 262 nM

Question: What about the GI50 (DU-145; Homo sapiens, DU-145, 48 h) of the same molecule?
Answer: 109 nM

Question: And the IC50 [1]?
Answer: 740 nM

Question: With `COc1cc(C2=CCCCc3c2ccc(OC)c3OP(=O)(O)O)cc(OC)c1OC` as the molecule, how does the GI50 (NCI-H460; Homo sapiens, NCI-H460, 48 h) read?
Answer: 7.96 nM

Question: And the GI50 (DU-145; Homo sapiens, DU-145, 48 h)?
Answer: 9.51 nM

Question: What about the IC50 [1] of the same molecule?
Answer: > 40000 nM

Question: For `COc1ccc2c(c1NC(=O)[C@@H](N)CO)CCCC=C2c1cc(OC)c(OC)c(OC)c1` [listing 1 of 2 here], which GI50 (SK-OV-3; Homo sapiens, SK-OV-3, 48 h) is on record?
Answer: 35000 nM

Question: What about the GI50 (NCI-H460; Homo sapiens, NCI-H460, 48 h) of the same molecule?
Answer: 53800 nM

Question: What about the GI50 (DU-145; Homo sapiens, DU-145, 48 h) of the same molecule?
Answer: 69400 nM

Question: Which GI50 (SK-OV-3; Homo sapiens, SK-OV-3, 48 h) does the source give for `COc1cc(C2=CCCCc3c2cc(OC)c(OC)c3O)cc(OC)c1OC` here?
Answer: 18100 nM

Question: What about the GI50 (NCI-H460; Homo sapiens, NCI-H460, 48 h) of the same molecule?
Answer: 25900 nM

Question: What about the GI50 (DU-145; Homo sapiens, DU-145, 48 h) of the same molecule?
Answer: 38400 nM

Question: And the IC50 [1]?
Answer: > 40000 nM

Question: Which GI50 (SK-OV-3; Homo sapiens, SK-OV-3, 48 h) does the source give for `COc1ccc(/C=C\c2cc(OC)c(OC)c(OC)c2)cc1O` [COMBRETASTATIN A4] here?
Answer: 4.55 nM

Question: What about the GI50 (NCI-H460; Homo sapiens, NCI-H460, 48 h) of the same molecule?
Answer: 2.23 nM

Question: What about the GI50 (DU-145; Homo sapiens, DU-145, 48 h) of the same molecule?
Answer: 3.27 nM

Question: With `COc1ccc(C2=CCCCc3c2ccc(OC)c3OC)cc1OC` as the molecule, how does the GI50 (SK-OV-3; Homo sapiens, SK-OV-3, 48 h) read?
Answer: > 89500 nM

Question: And the GI50 (NCI-H460; Homo sapiens, NCI-H460, 48 h)?
Answer: > 136000 nM

Question: What about the GI50 (DU-145; Homo sapiens, DU-145, 48 h) of the same molecule?
Answer: 42500 nM

Question: And the IC50 [1]?
Answer: > 40000 nM

Question: Which results are given for `COc1ccc(/C=C\c2cc(OC)c(OC)c(OC)c2)cc1OP(=O)(O)O` [FOSBRETABULIN DISODIUM]?
Answer: GI50 (SK-OV-3; Homo sapiens, SK-OV-3, 48 h): 1.19 nM; GI50 (NCI-H460; Homo sapiens, NCI-H460, 48 h): 1.94 nM; GI50 (DU-145; Homo sapiens, DU-145, 48 h): 3.23 nM; IC50 [1]: > 40000 nM

Question: Which results are given for `COc1cc2c(c(OC)c1O)CCCC=C2c1cc(OC)c(OC)c(OC)c1`?
Answer: GI50 (SK-OV-3; Homo sapiens, SK-OV-3, 48 h): 7130 nM; GI50 (NCI-H460; Homo sapiens, NCI-H460, 48 h): 18000 nM; GI50 (DU-145; Homo sapiens, DU-145, 48 h): 15700 nM; IC50 [1]: > 40000 nM

Question: What does the source list for `COc1ccc2c(c1Cl)CCCC=C2c1cc(OC)c(OC)c(OC)c1`?
Answer: GI50 (SK-OV-3; Homo sapiens, SK-OV-3, 48 h): 44.4 nM; GI50 (NCI-H460; Homo sapiens, NCI-H460, 48 h): 71.3 nM; GI50 (DU-145; Homo sapiens, DU-145, 48 h): 152 nM; IC50 [1]: 930 nM

Question: Which results are given for `COc1ccc2c(c1N)CCCC=C2c1cc(OC)c(OC)c(OC)c1`?
Answer: GI50 (SK-OV-3; Homo sapiens, SK-OV-3, 48 h): 0.102 nM; GI50 (NCI-H460; Homo sapiens, NCI-H460, 48 h): 2.8 nM; IC50 [1]: 1200 nM

Question: With `COc1ccc2c(c1NC(=O)[C@@H](N)CO)CCCC=C2c1cc(OC)c(OC)c(OC)c1` [listing 2 of 2 here] as the molecule, how does the GI50 (SK-OV-3) read?
Answer: 36800 nM

Question: And the GI50 (NCI-H460)?
Answer: 39000 nM

Question: And the GI50 (DU-145)?
Answer: 70500 nM

Question: For `COc1cc(C2=CCCCc3ccccc32)cc(OC)c1OC`, which GI50 (SK-OV-3; Homo sapiens, SK-OV-3, 48 h) is on record?
Answer: 19100 nM

Question: What about the GI50 (NCI-H460; Homo sapiens, NCI-H460, 48 h) of the same molecule?
Answer: 32500 nM

Question: What about the GI50 (DU-145; Homo sapiens, DU-145, 48 h) of the same molecule?
Answer: 22000 nM

Question: And the IC50 [1]?
Answer: > 40000 nM
